Patent US20230159620A1, “COMPOSITIONS AND METHODS OF TREATMENT FOR VASCULAR DISEASES AND THROMBOSIS” (Washington University, priority 2021, published 2023)

Assays:
[1] = tested on: VSMCs; assay: VSMC proliferation assay (BrdU incorporation); format: cell-based, mouse
Protocol: Plates were UV sterilized before adding cells. […] For analysis of peritoneal macrophages, 4% thioglycolate-elicited peritoneal macrophages from Itg α9^MAC+/+ and Itg α9^MACfl/fl mice were suspended in BrdU dissolved in RPMI 1640 media containing 10% FBS. 2.5×10^4 cells were added to each well since peritoneal macrophages are smaller and have lower proliferation rates than VSMCs in culture.
Plates were ultraviolet (UV) sterilized before adding cells. […] Efficient Itgα9 knockdown was confirmed by qPCR.

[2] = tested on: AKT; assay: AKT signaling immunoblot / phospho-array, HUVECs; format: cell-based, human; settings: PP1 10 μM, Dynasore 100 μM, vs DMSO
Protocol: Cellular reagents were purchased from various commercial vendors. Primary human umbilical vein endothelial cells (HUVECs) were obtained from Cell Applications Inc. and cultured according to the manufacture's recommendations. Primary human coronary artery smooth muscle cells were obtained from Invitrogen and were cultured according to the manufacture's recommendations. 293T cells were obtained from ATCC and were cultured according to the manufacture's recommendations. Mouse primary smooth muscle cells were obtained and cultured as described previously. Predesigned Silencer Select siRNA constructs targeting Pearl 1 and negative control siRNA were obtained from ThermoFisher. Transfections were performed using RNAiMAX or Lipofectamine 3000 transfection reagents according to the manufacturer's protocols. Cells were used for signaling assays 48 hours after transfection; efficient Pearl 1 knockdown or Pearl 1 overexpression was confirmed by immunoblot assays.
Prior to performing signaling assays, cells were trypsinized, centrifuged, suspended in basal media, and counted using an automated hemocytometer. Cells were further diluted in basal media to an assay-dependent concentration. Cells were then incubated with gentle agitation for 60 minutes to prevent cell attachment and reduce basal signaling. PP1, Dynasore, MK-2206, and Rapamycin were diluted in DMSO and used in assay concentrations of 10 μM, 100 μM, 10 μM, and respectively, for the final 20-30 minutes of incubation in basal media. An equal volume of DMSO was used as the negative control condition. […] 1 μg Pearl 1 polyclonal antibody was added as a specific positive control. 20% growth media or 2% fetal bovine serum, labeled “Serum” in figures, was added as a non-specific positive control. The cells were centrifuged at 300G for 3 minutes with the exception of platelets, which were centrifuged at 500G for 5 minutes. The cells were then incubated at 37° C. for 8-45 minutes, depending on the cell type and pathway of interest. The cells were lysed in radioimmunoprecipitation buffer (RIPA) containing a cocktail of protease and phosphatase inhibitors and universal nuclease. Immunoblots were performed by standard techniques, as briefly follows. Protein content was determined using a bicinchoninic acid assay with BSA standards (#23225, Pierce BCA Protein Assay Kit). Cell lysates were then reduced with dithiothreitol (DTT) in lithium dodecyl sulfate (LDS) sample buffer (#NP0007, Invitrogen). Equal protein amounts were added to polyacrylamide gels (#4561086, BioRad) and electrophoresed prior to transferring to a nitrocellulose or polyvinylidene fluoride membrane (#1620260, BioRad). Membranes were blocked in 5% BSA/Tris-buffered saline (TBS) with 0.1% Tween 20 for 30 minutes. […]

[3] = tested on: AKT; assay: AKT signaling immunoblot, platelets; format: cell-based, human; settings: platelets pretreated with inhibitor before SVEP1
Protocol: Prior to performing signaling assays, cells were trypsinized, centrifuged, suspended in basal media, and counted using an automated hemocytometer. Cells were further diluted in basal media to an assay-dependent concentration. Cells were then incubated with gentle agitation for 60 minutes to prevent cell attachment and reduce basal signaling. PP1, Dynasore, MK-2206, and Rapamycin were diluted in DMSO and used in assay concentrations of 10 μM, 100 μM, 10 μM, and respectively, for the final 20-30 minutes of incubation in basal media. An equal volume of DMSO was used as the negative control condition. […] 1 μg Pearl 1 polyclonal antibody was added as a specific positive control. 20% growth media or 2% fetal bovine serum, labeled “Serum” in figures, was added as a non-specific positive control. The cells were centrifuged at 300G for 3 minutes with the exception of platelets, which were centrifuged at 500G for 5 minutes. The cells were then incubated at 37° C. for 8-45 minutes, depending on the cell type and pathway of interest. The cells were lysed in radioimmunoprecipitation buffer (RIPA) containing a cocktail of protease and phosphatase inhibitors and universal nuclease. Immunoblots were performed by standard techniques, as briefly follows. Protein content was determined using a bicinchoninic acid assay with BSA standards (#23225, Pierce BCA Protein Assay Kit). Cell lysates were then reduced with dithiothreitol (DTT) in lithium dodecyl sulfate (LDS) sample buffer (#NP0007, Invitrogen). Equal protein amounts were added to polyacrylamide gels (#4561086, BioRad) and electrophoresed prior to transferring to a nitrocellulose or polyvinylidene fluoride membrane (#1620260, BioRad). Membranes were blocked in 5% BSA/Tris-buffered saline (TBS) with 0.1% Tween 20 for 30 minutes. The indicated primary antibodies were incubated with the pre-blocked membranes overnight at 4° C. Membranes were washed with TBS with 0.1% Tween 20, probed with fluorescent secondary antibodies, and imaged. β-actin or β-tubulin served as a loading control.
Whole blood was collected by venipuncture into either heparin vacutainers (BD, Franklin Lakes) for whole blood experiments or acid-citrate-dextrose (ACD) vacutainers (BD, Franklin Lakes) for platelet isolation studies. For platelet isolation, samples were supplemented with apyrase (Sigma, St Louis) and prostaglandin E1 (Cayman Chemical, Ann Arbor), and platelet-rich plasma (PRP) was prepared by centrifugation of the ACD whole blood for 20 minutes at 200G. Platelets were isolated from the PRP by centrifugation for 10 minutes at 1000G and resuspended in modified Tyrode's buffer twice at desired platelet counts and kept at 37° C. until used. Isolated platelets were used within 2 hours of preparation.

[4] = tested on: mTOR; assay: mTOR signaling immunoblot, platelets; format: cell-based, human; settings: platelets pretreated with inhibitor before SVEP1
Protocol: Prior to performing signaling assays, cells were trypsinized, centrifuged, suspended in basal media, and counted using an automated hemocytometer. Cells were further diluted in basal media to an assay-dependent concentration. Cells were then incubated with gentle agitation for 60 minutes to prevent cell attachment and reduce basal signaling. […] An equal volume of DMSO was used as the negative control condition. […] 1 μg Pearl 1 polyclonal antibody was added as a specific positive control. 20% growth media or 2% fetal bovine serum, labeled “Serum” in figures, was added as a non-specific positive control. The cells were centrifuged at 300G for 3 minutes with the exception of platelets, which were centrifuged at 500G for 5 minutes. The cells were then incubated at 37° C. for 8-45 minutes, depending on the cell type and pathway of interest. The cells were lysed in radioimmunoprecipitation buffer (RIPA) containing a cocktail of protease and phosphatase inhibitors and universal nuclease. Immunoblots were performed by standard techniques, as briefly follows. […] Cell lysates were then reduced with dithiothreitol (DTT) in lithium dodecyl sulfate (LDS) sample buffer (#NP0007, Invitrogen). […] Membranes were blocked in 5% BSA/Tris-buffered saline (TBS) with 0.1% Tween 20 for 30 minutes. The indicated primary antibodies were incubated with the pre-blocked membranes overnight at 4° C. Membranes were washed with TBS with 0.1% Tween 20, probed with fluorescent secondary antibodies, and imaged. β-actin or β-tubulin served as a loading control.
Whole blood was collected by venipuncture into either heparin vacutainers (BD, Franklin Lakes) for whole blood experiments or acid-citrate-dextrose (ACD) vacutainers (BD, Franklin Lakes) for platelet isolation studies. For platelet isolation, samples were supplemented with apyrase (Sigma, St Louis) and prostaglandin E1 (Cayman Chemical, Ann Arbor), and platelet-rich plasma (PRP) was prepared by centrifugation of the ACD whole blood for 20 minutes at 200G. […]

[5] = Arterial blood pressure response to vasoactive agents; format: in vivo, mouse; settings: venous administration, anesthetized Svep1+/+ and Svep1−/− mice
Protocol: Central arterial blood pressure and heart rate were measured under inhaled 1.5% isoflurane anesthesia and while mice were maintained at 37° C. using a heating pad and rectal thermometer, as done previously. Briefly, a midline incision was performed in the neck region; the thymus, muscle, and connective tissue were dissected away to isolate the right common carotid artery. After tying it distally and clamping it proximally, an incision was made in the right common carotid artery through which a Millar pressure transducer (model SPR-1000, Houston, Tex.) was introduced, the clamp was removed, and the transducer advanced to the ascending aorta. Once instrumentation was complete, arterial blood pressure (systolic, diastolic, and mean) and heart rate were recorded via the PowerLab® data acquisition system (ADlnstruments, Colorado Springs, Colo.). The average of a 3-minute period of stable recording was reported. Data were analyzed using LabChart® 8 for 673 MAC software (ADInstruments).
To assess the blood pressure response to vasoactive agents, after baseline blood pressure measurement, dissection was performed to visualize the left internal jugular (IJ) vein as done previously. Once identified, a small incision was made and PE-10 tubing was introduced and kept in place with a 6-0 silk suture. […]

Row | Compound | effect of inhibitor pretreatment on AKT activation by SVEP1 and Pearl 1 pAb [2] | effect of inhibitor on activation of AKT by SVEP1 [3] | dependence of SVEP1-induced p70S6K Thr 389 phosphorylation on the inhibited protein or process [4] | change in blood pressure [5] | other results
1 | C[C@H](NC(=O)Cc1cc(F)cc(F)c1)C(=O)N[C@H](C(=O)OC(C)(C)C)c1ccccc1 [DAPT, reference compound] | – | – | – | – | effect on cell proliferation in response to 10% fetal bovine serum ([1]; 25 μM DAPT): not significantly inhibited; effect on SVEP1-induced proliferation ([1]; 25 μM DAPT vs DMSO): completely abrogated
2 | O=C(N/N=C/c1ccc(O)c(O)c1)c1cc2ccccc2cc1O [Dynasore] | abrogated | partially abrogated | partially dependent | – | –
3 | NC1(c2ccc(-c3nc4ccn5c(=O)[nH]nc5c4cc3-c3ccccc3)cc2)CCC1 [MK-2206] | – | completely abrogated | partially dependent | – | –
4 | Cc1ccc(-c2nn(C(C)(C)C)c3ncnc(N)c23)cc1 [PP1] | abrogated | completely abrogated | dependent | – | –
5 | CNC[C@H](O)c1cccc(O)c1 [phenylephrine] | – | – | – | dose-dependent manner | –
6 | angiotensin II | – | – | – | dose-dependent manner | –
